According to ChEMBL document CHEMBL1201862, “PubChem BioAssay data set” (2004):
Calls of active or inactive are those of the source. Rule as the data show it: active = IC50 of 20 µM or less and inactive = more.

Target: T1, Hexokinase HKDC1 (Homo sapiens, UniProt Q2TB90)
T1 sequence (Q2TB90 whole entry): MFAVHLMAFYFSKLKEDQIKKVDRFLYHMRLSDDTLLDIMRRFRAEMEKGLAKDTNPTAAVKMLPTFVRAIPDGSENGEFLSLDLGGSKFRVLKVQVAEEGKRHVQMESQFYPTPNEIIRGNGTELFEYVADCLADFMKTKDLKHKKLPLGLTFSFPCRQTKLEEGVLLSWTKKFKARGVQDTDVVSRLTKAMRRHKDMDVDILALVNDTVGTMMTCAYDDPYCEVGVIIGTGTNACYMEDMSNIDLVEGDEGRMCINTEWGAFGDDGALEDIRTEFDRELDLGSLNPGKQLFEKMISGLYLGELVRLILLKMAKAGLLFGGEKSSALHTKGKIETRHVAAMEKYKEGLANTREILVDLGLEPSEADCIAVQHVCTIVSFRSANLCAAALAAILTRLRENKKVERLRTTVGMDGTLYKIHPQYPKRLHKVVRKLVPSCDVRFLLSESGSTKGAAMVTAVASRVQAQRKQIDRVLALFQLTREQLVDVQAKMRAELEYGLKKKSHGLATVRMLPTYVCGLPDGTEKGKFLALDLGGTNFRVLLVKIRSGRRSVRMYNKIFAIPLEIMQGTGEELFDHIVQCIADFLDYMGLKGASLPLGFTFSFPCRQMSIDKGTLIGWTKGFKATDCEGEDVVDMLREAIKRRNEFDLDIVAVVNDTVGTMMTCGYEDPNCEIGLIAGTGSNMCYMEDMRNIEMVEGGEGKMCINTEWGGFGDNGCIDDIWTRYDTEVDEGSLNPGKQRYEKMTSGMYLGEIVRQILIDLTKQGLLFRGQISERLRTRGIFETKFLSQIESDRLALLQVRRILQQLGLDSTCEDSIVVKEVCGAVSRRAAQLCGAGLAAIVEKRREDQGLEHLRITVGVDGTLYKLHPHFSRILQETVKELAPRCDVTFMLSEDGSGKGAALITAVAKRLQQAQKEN
Experiment: inhibition of HKDC1 glucose phosphorylation – biochemical, W721R variant, dose response (AID 504729)
Assay type: functional

For `CC(=O)N(C1=C(Cl)C(=O)c2ccccc2C1=O)c1ccc(C(=O)O)cc1`, the IC50 was 6.23 µM (active).
